Experimental data from ChEMBL document CHEMBL1687943, “Synthesis of new glycyrrhetinic acid derived ring A azepanone, 29-urea and 29-hydroxamic acid derivatives as selective 11β-hydroxysteroid dehydrogenase 2 inhibitors” (Bioorg Med Chem, 2011).

Columns and labels:
[1] = target: T1, 11-beta-hydroxysteroid dehydrogenase 1 (Homo sapiens, UniProt P28845); details: HEK293, at 1000 nM
Target sequence in this assay (P28845 whole entry, looked up): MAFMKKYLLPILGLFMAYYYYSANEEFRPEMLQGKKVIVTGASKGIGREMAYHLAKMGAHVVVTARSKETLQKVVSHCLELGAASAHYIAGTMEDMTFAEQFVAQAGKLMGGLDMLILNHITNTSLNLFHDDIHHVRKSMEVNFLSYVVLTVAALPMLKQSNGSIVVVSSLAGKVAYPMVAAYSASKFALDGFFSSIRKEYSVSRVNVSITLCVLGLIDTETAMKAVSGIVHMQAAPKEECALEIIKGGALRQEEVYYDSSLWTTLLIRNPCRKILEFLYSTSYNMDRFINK
Description: Inhibition of human recombinant 11beta-HSD1 expressed in HEK293 cells assessed as residual conversion of [1,2-[3H]cortisone to cortisol at 1000 nM after 10 mins by scintillation counting

[2] = target: T1, 11-beta-hydroxysteroid dehydrogenase 1; test: Inhibition of human recombinant 11beta-HSD1 expressed in HEK293 cells assessed as conversion of [1,2-[3H]cortisone to cortisol after 10 mins by scintillation counting; assay type: cell-based
Target sequence in this assay (P28845 whole entry): as the sequence (P28845 whole entry, looked up) above

[3] = target: T2, 11-beta-hydroxysteroid dehydrogenase type 2 (Homo sapiens) (UniProt P80365); details: HEK293, at 1000 nM
T2 sequence (whole entry): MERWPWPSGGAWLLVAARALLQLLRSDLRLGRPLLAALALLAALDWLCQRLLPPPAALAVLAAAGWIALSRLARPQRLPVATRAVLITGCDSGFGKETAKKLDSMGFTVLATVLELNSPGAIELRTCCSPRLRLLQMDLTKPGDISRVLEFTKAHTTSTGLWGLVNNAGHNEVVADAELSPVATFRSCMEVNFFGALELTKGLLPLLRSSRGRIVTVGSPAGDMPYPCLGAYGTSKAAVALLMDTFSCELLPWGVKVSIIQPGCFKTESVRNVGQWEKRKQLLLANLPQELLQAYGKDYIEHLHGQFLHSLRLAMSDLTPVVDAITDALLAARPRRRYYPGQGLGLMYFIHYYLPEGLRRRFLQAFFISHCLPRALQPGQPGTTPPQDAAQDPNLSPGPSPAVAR
Description: Inhibition of human 11beta-HSD2 expressed in HEK293 cells assessed as residual conversion of [1,2,6,7-[3H]cortisol to cortisone at 1000 nM after 10 mins by scintillation counting

[4] = target: T1, 11-beta-hydroxysteroid dehydrogenase 1; details: HEK293, at 200 nM
Target sequence in this assay (P28845 whole entry, looked up): as the sequence (P28845 whole entry, looked up) above
Description: Inhibition of human recombinant 11beta-HSD1 expressed in HEK293 cells assessed as residual conversion of [1,2-[3H]cortisone to cortisol at 200 nM after 10 mins by scintillation counting

[5] = target: T2, 11-beta-hydroxysteroid dehydrogenase type 2 (Homo sapiens); details: HEK293, at 200 nM
Description: Inhibition of human 11beta-HSD2 expressed in HEK293 cells assessed as residual conversion of [1,2,6,7-[3H]cortisol to cortisone at 200 nM after 10 mins by scintillation counting

[6] = target: T3, 11-beta-hydroxysteroid dehydrogenase type 2 (Homo sapiens, UniProt P80365); test: Inhibition of human 11beta-HSD2 expressed in HEK293 cells assessed as conversion of [1,2,6,7-[3H]cortisol to cortisone after 10 mins by scintillation counting; assay type: cell-based
T3 sequence (P80365 whole entry): T2 sequence (whole entry)

[7] = target: T1, 11-beta-hydroxysteroid dehydrogenase 1; details: HEK293, at 1 µM
Target sequence in this assay (P28845 whole entry, looked up): as the sequence (P28845 whole entry, looked up) above
Description: Inhibition of human recombinant 11beta-HSD1 expressed in HEK293 cells assessed as conversion of [1,2-[3H]cortisone to cortisol at 1 uM after 10 mins by scintillation counting

SMILES: CC(=O)O[C@H]1CC[C@]2(C)[C@H]3C(=O)C=C4[C@@H]5C[C@@](C)(C(=O)O)CC[C@]5(C)CC[C@@]4(C)[C@]3(C)CC[C@H]2C1(C)C
- residual activity [1]: 12%

SMILES: CC1(C)C(=O)CC[C@]2(C)[C@H]3C(=O)C=C4[C@@H]5C[C@@](C)(NC(N)=O)CC[C@]5(C)CC[C@@]4(C)[C@]3(C)CC[C@@H]12
- IC50 [2]: > 10 µM

SMILES: CC1(C)/C(=N/O)CC[C@]2(C)[C@H]3C(=O)C=C4[C@@H]5C[C@@](C)(C(=O)O)CC[C@]5(C)CC[C@@]4(C)[C@]3(C)CC[C@@H]12
- residual activity [3]: 1%

SMILES: CC(=O)N[C@H]1CC[C@]2(C)[C@H]3C(=O)C=C4[C@@H]5C[C@@](C)(C(=O)O)CC[C@]5(C)CC[C@@]4(C)[C@]3(C)CC[C@H]2C1(C)C
- residual activity [1]: 36%
- residual activity [3]: 0.2%

SMILES: CC(=O)O[C@H]1CC[C@]2(C)[C@H]3C(=O)C=C4[C@@H]5C[C@@](C)(NC(=O)N(C)O)CC[C@]5(C)CC[C@@]4(C)[C@]3(C)CC[C@H]2C1(C)C
- residual activity [4]: 96%
- residual activity [5]: 110%

SMILES: CC1(C)[C@@H](OC(=O)CCC(=O)O)CC[C@]2(C)[C@H]3C(=O)C=C4[C@@H]5C[C@@](C)(C(=O)O)CC[C@]5(C)CC[C@@]4(C)[C@]3(C)CC[C@@H]12
- residual activity [1]: 12%

SMILES: CC1(C)[C@@H](O)CC[C@]2(C)C3=CC(=O)[C@H]4[C@@H]5C[C@@](C)(C(=O)O)CC[C@]5(C)CC[C@@]4(C)[C@]3(C)CC[C@@H]12
- residual activity [4]: 77%
- residual activity [5]: 85%

SMILES: CC(=O)O[C@H]1CC[C@]2(C)[C@H]3C(=O)C=C4[C@@H]5C[C@@](C)(NC(=O)NO)CC[C@]5(C)CC[C@@]4(C)[C@]3(C)CC[C@H]2C1(C)C
- residual activity [4]: 92%
- residual activity [5]: 34%

SMILES: CC1(C)C(=O)CC[C@]2(C)[C@H]3C(=O)C=C4[C@@H]5C[C@@](C)(C(=O)O)CC[C@]5(C)CC[C@@]4(C)[C@]3(C)CC[C@@H]12
- residual activity [1]: 36%

SMILES: CC(=O)O[C@H]1CC[C@]2(C)[C@H]3C(=O)C=C4[C@@H]5C[C@@](C)(NC(=O)N(CCO)CCO)CC[C@]5(C)CC[C@@]4(C)[C@]3(C)CC[C@H]2C1(C)C
- residual activity [4]: 102%
- residual activity [5]: 93%

SMILES: CC1(C)[C@@H](Oc2noc(=O)[nH]2)CC[C@]2(C)[C@H]3C(=O)C=C4[C@@H]5C[C@@](C)(NC(N)=O)CC[C@]5(C)CC[C@@]4(C)[C@]3(C)CC[C@@H]12
- IC50 [2]: > 40 µM
- IC50 [6]: > 4 µM
- residual activity [4]: 81%
- residual activity [5]: 24%

SMILES: CN(O)C(=O)[C@@]1(C)CC[C@]2(C)CC[C@]3(C)C(=CC(=O)[C@@H]4[C@@]5(C)CCC(=O)NC(C)(C)[C@@H]5CC[C@]43C)[C@@H]2C1
- IC50 [2]: > 40 µM
- residual activity [4]: 73%

SMILES: CC1(C)[C@@H](O)CC[C@]2(C)[C@H]3C(=O)C=C4[C@@H]5C[C@@](C)(C(=O)O)CC[C@]5(C)CC[C@@]4(C)[C@]3(C)CC[C@@H]12
- residual activity [1]: 16%
- inhibition [7]: 83.9%

SMILES: CC(=O)O[C@H]1CC[C@]2(C)[C@H]3C(=O)C=C4[C@@H]5C[C@@](C)(NC(=O)NCCO)CC[C@]5(C)CC[C@@]4(C)[C@]3(C)CC[C@H]2C1(C)C
- residual activity [4]: 97%
- residual activity [5]: 38%

SMILES: CC(=O)O[C@H]1CC[C@]2(C)[C@H]3C(=O)C=C4[C@@H]5C[C@@](C)(NC(=O)NS(C)(=O)=O)CC[C@]5(C)CC[C@@]4(C)[C@]3(C)CC[C@H]2C1(C)C
- residual activity [4]: 90%
- residual activity [5]: 20%

SMILES: CC1(C)NC(=O)CC[C@]2(C)[C@H]3C(=O)C=C4[C@@H]5C[C@@](C)(C(=O)O)CC[C@]5(C)CC[C@@]4(C)[C@]3(C)CC[C@@H]12
- residual activity [1]: 43%
- residual activity [3]: 21%
